Experimental findings from patent US9809602B2, “Compounds for treating viral infections” (INSTITUT PASTEUR KOREA, priority 2014, dated 2017) are described below.

The subject of one experiment is genotype 1/2 chimeric cell culture derived HCV (HCVcc). In words: Genotype 1/2 chimeric HCVcc assay (nano-luciferase, HCV replication). In kind it is cell-based. The following applies: Hepatitis C virus. In a few lines:
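EC50 (replication, nano-luciferase) and CC50 (viability, cellular ATP) were determined by non-linear regression 72 h after infection with a reporter HCVcc chimera carrying genotype 1a structural and 2a JFH-1 non-structural proteins. Compound was applied to Huh-7.5 cells 2 h before inoculation.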
A word on the EC50: it is the concentration at which the effect is half-maximal. With `O=C(NCCCOc1ccc(N2CCCCC2)cc1)c1ccc(Oc2ccccc2)cc1` [Compound 1051], the EC50 is over 10000 nM.
For `O=C(NCCCN1CCC(N2CCCCC2)CC1)c1ccc(-c2ccc(S(=O)(=O)N3CCOCC3)cc2)cc1` [Compound 1144], the EC50 was in the range of 1000 to 10000 nM.
On to `O=C(NCCCN1CCC(N2CCCCC2)CC1)c1ccc(-c2cccc(C(F)(F)F)c2)cc1` [Compound 1027], for which the EC50 is 100 to 1000 nM.
Turning to `O=C(NC1CC(N2CCC(N3CCCCC3)CC2)C1)c1ccc(Oc2ccccc2)cc1` (centres unmarked) [Compound 1059], the EC50 was 1000 to 10000 nM.
Turning to `O=C(NCCCN1CCC(N2CCCCC2)CC1)c1ccc(-c2ccc(F)cc2Cl)cc1` [Compound 1132], the EC50 lay in the range of 100 to 1000 nM.
Compound `O=C(CCCN1CCC(N2CCCCC2)CC1)Nc1ccc(Oc2ccccc2)cc1` [Compound 1052] registered a 50% effective concentration (EC50) of 100 to 1000 nM.
Compound `CC(C)(C)OC(=O)N1CCC(C2CCN(CCCNC(=O)c3ccc(Oc4ccccc4)cc3)CC2)CC1` [Compound 1073] registered an EC50 of 100 to 1000 nM.
Turning to `O=C(NCCCN1CCC(N2CCCCC2)CC1)c1ccc(-c2ccc(C(F)(F)F)cc2)cc1C(F)(F)F` [Compound 1104], the EC50 fell in the range of 100 to 1000 nM.
`O=C(NCCCN1CCCC1)c1cc2c(s1)CCCC2` [Compound 1004] displayed an EC50 of over 10000 nM.
The compound `COc1ccc(-c2ccc(S(=O)(=O)NCCCN3CCC(N4CCCCC4)CC3)cc2)cc1` [Compound 1097] returned an EC50 of 100 to 1000 nM.
In turn, `CC(C)(C)OC(=O)c1ccc(-c2ccc(C(=O)NCCCN3CCC(N4CCCCC4)CC3)cc2)cc1` [Compound 1139] displayed an EC50 of 100 to 1000 nM.
In turn, `O=C(NCCCN1CCC(N2CCCCC2)CC1)c1ccc2cc[nH]c2c1` [Compound 1008] had an EC50 of over 10000 nM.
Regarding `O=C(NCCCN1CCC(N2CCCCC2)CC1)c1ccc(-c2cccc([N+](=O)[O-])c2)cc1` [Compound 1147], the EC50 lay within 100 to 1000 nM.
`O=C(NCCCCN1CCC(N2CCCCC2)CC1)c1ccc(Oc2ccccc2)cc1` [Compound 1045] had an EC50 of 100 to 1000 nM.
For `O=C(NCCCN1CCC(N2CCCCC2)CC1)c1ccc(Oc2ccc(C(F)(F)F)cc2)cc1` [Compound 1111], the EC50 is 100 to 1000 nM.
Same read-out and setting: the same measure for `O=C(NCCCN1CCC(N2CCCCC2)CC1)c1ccc(-c2cccc(Cl)c2)cc1` [Compound 1141]: 100 to 1000 nM.
Same read-out and setting: the same measure for `O=C(NCCCN1CCC(C2CCNCC2)CC1)c1ccc(Oc2ccccc2)cc1` [Compound 1072]: 1000 to 10000 nM; for `O=S(=O)(NCCCN1CCC(N2CCCCC2)CC1)c1ccc(-c2ccccc2)cc1` [Compound 1090]: 100 to 1000 nM; for `O=C(Nc1ccc(N2CCC(N3CCCCC3)CC2)cc1)c1ccc(Oc2ccccc2)cc1` [Compound 1048]: 1000 to 10000 nM.
Compound `CN(C)c1ccc(Oc2ccc(C(=O)NCCCN3CCC(N4CCCCC4)CC3)cc2)cc1` [Compound 1110] came in with an EC50 of 100 to 1000 nM.
Same read-out and setting: the same measure for `O=C(NCCCN1CCC(N2CCCCC2)CC1)c1ccc(Oc2cccc(F)c2)cc1` [Compound 1062]: over 10000 nM; for `COc1cc(-c2ccc(C(F)(F)F)cc2)ccc1C(=O)NCCCN1CCC(N2CCCCC2)CC1` [Compound 1155]: 100 to 1000 nM.

The experiment is the same for the next values; noted with them: Hepatitis C virus, Huh7.5, 72 h.
`CCN1CCc2c(sc(-n3cccc3)c2CNC(=O)Nc2sc3c(c2-c2nnc(C)o2)CCCC3)C1` [Compound 43]: the EC50 is under 100 nM.
`CCOC(=O)c1c(NC(=O)NCc2c(C(F)(F)F)sc3c2CCN(C(=O)C(C)N)C3)sc2c1CCCC2` (centres unmarked) [Compound 315] registered an EC50 of under 100 nM.
In the case of `CCN1CCc2c(sc(-n3cccc3)c2CNC(=O)Nc2sc3c(c2C(N)=O)CCCC3)C1` [Compound 37], the 50% effective concentration (EC50) lay within 100 to 1000 nM.
For the compound `CCOC(=O)c1c(NC(=O)NCc2c(-n3cccc3)sc3c2CCN(CC)C3)sc2c1CCCCC2` [Compound 56], the EC50 was under 100 nM.
The compound `Cn1ccc(-c2sc3c(c2CNC(=O)Nc2sc4c(c2C(=O)OC(C)(C)C)CCCC4)CCNC3)c1` [Compound 182] displayed a concentration giving a half-maximal response (EC50) of under 100 nM.
Compound `CCN1CCc2c(sc(Br)c2CNC(=O)Nc2sc3c(c2C(=O)OC(C)(C)C)CCCC3)C1` [Compound 111] displayed an EC50 of under 100 nM.
Still for that read-out and setting: under `CCOC(=O)c1c(NC(=O)NCc2c(N3CCCC3)sc3c2CCNC3)sc2c1CCCC2` [Compound 125] stands 100 to 1000 nM.
In turn, `CC(C)(C)OC(=O)c1c(NC(=O)NCc2c(C(F)(F)F)sc3c2CCNC3)sc2c1CCOC2F` (centres unmarked) [Compound 335] yielded an EC50 of under 100 nM.
The same measure, in the same setting: under `CCOC(=O)c1c(NC(=O)NCc2c(Br)sc3c2CCN(C(C)C)C3)sc2c1CCCC2` [Compound 200] stands under 100 nM; under `CC(C)(C)OC(=O)c1c(NC(=O)NCc2c(-c3cccc(C(F)(F)F)c3)sc3c2CCNC3)sc2c1CCCC2` [Compound 204], 100 to 1000 nM; under `CCOC(=O)c1c(NC(=O)NCc2c(-n3cccc3)sc3c2CCNC3)sc2c1CCC(F)(F)C2` [Compound 75], under 100 nM.
`CCN1CCc2c(sc(-n3cccc3)c2CNC(=O)Nc2sc3c(c2C(=O)NN2CCN(C)CC2)CCCC3)C1` [Compound 253] registered a concentration for a half-maximal effect (EC50) of 100 to 1000 nM.
Turning to `CCOC(=O)c1c(NC(=O)NCc2c(-n3cccc3)sc3c2CCN(CC)C3)sc2c1CCN(CC)C2` [Compound 26], the EC50 was under 100 nM.
Regarding `CC(C)(C)OC(=O)c1c(NC(=O)NCc2c(C(F)(F)F)sc3c2CCNC3)sc2c1CCOC2O` (centres unmarked) [Compound 320], the concentration for a half-maximal effect (EC50) was under 100 nM.
In turn, `Cc1sc(NC(=O)NCc2c(-c3cccc(Cl)c3)sc3c2CCN(CCN(C)C)C3)c(C(=O)OC(C)(C)C)c1C` [Compound 365] registered an EC50 of 100 to 1000 nM.
For the compound `CCOC(=O)c1c(NC(=O)NCc2ccc(N(C)C)cc2)sc2c1CCCC2` [Compound 103], the half-maximal effective concentration (EC50) was under 100 nM.
Consider `CCOC(=O)c1c(NC(=O)NCc2c(-n3cccc3)sc3c2CCN(S(C)(=O)=O)C3)sc2c1CCCC2` [Compound 21], for which the EC50 was under 100 nM.
Same read-out and setting: under `CCOC(=O)c1c(NC(=O)NCc2c(C(F)(F)F)sc3c2CCN(C(=O)[C@@H](N)C(C)C)C3)sc2c1CCCC2` [Compound 345] stands under 100 nM; under `CCOC(=O)c1c(NC(=O)NCc2c(C(F)(F)F)sc3c2CCN(C(C)C)C3)sc2c1CCCC2` [Compound 198], under 100 nM.
`C=CCCOC(=O)c1c(NC(=O)NCc2c(C(F)(F)F)sc3c2CCNC3)sc2c1CCCC2` [Compound 275]: the EC50 is under 100 nM.
On to `CC(C)(C)OC(=O)c1c(NC(=O)NCc2c(Br)sc3c2CC[N+](C)(C)C3)sc2c1CCCCC2` [Compound 255], for which the EC50 is under 100 nM.
Turning to `CCN1CCc2c(sc(-n3cccc3)c2CNC(=O)Nc2sc3c(c2C(=O)OC)CCCC3)C1` [Compound 127], the EC50 was under 100 nM.
`CCOC(=O)c1c(NC(=O)NC(=O)c2c(-n3c(C)ccc3C)sc3c2CCN(CC)C3)sc2c1CCCC2` [Compound 49]: the half-maximal effective concentration (EC50) was 1000 to 10000 nM.
Take `Cc1sc(NC(=O)NCc2c(Br)sc3c2CCNC3)c(C(=O)OC(C)(C)C)c1C` [Compound 138]: the EC50 is under 100 nM.
`CC(C)(C)OC(=O)c1c(NC(=O)NCc2c(Br)sc3c2CCNC3)sc2c1CCCC2` [Compound 116] had an EC50 of under 100 nM.
The compound `CCOC(=O)c1c(NC(=O)NCc2c(C(F)(F)F)sc3c2CCNC3)sc2c1CCC(F)(F)C2` [Compound 219] registered an EC50 of under 100 nM.
On to `CCOC(=O)c1c(NC(=O)NCc2c(-n3cccc3)sc3c2CCN(CC)C3)sc(C(C)=O)c1C` [Compound 39], for which the EC50 is under 100 nM.
Consider `CCOC(=O)c1c(NC(=O)NCc2c(Br)sc3c2CCN(C)C3)sc2c1CCCC2` [Compound 199], for which the EC50 was under 100 nM.
On the same count and under the same terms, the same measure for `CCOC(=O)c1c(NC(=O)NCc2cc(CN(C)C)ccc2F)sc2c1CCCC2` [Compound 108]: 100 to 1000 nM.
With `CCc1sc2c(c1CNC(=O)Nc1sc3c(c1C(=O)OC(C)(C)C)CCCCC3)CCNC2` [Compound 312], the EC50 is under 100 nM.
Still for that read-out and setting: under `CC1CCc2c(sc(NC(=O)NCc3c(C(F)(F)F)sc4c3CCNC4)c2C(=O)OC(C)(C)C)C1` (centres unmarked) [Compound 212] stands under 100 nM.
The same measure, in the same setting: under `CCOC(=O)c1c(NC(=O)NCc2c(Br)sc3c2CCNC3)sc2c1CCC(F)(F)C2` [Compound 218] stands under 100 nM.
The compound `CCc1cc(C(=O)OC(C)(C)C)c(NC(=O)NCc2c(C(F)(F)F)sc3c2CCNC3)s1` [Compound 354] came in with an EC50 of under 100 nM.
`CCNC(=O)c1c(NC(=O)NCc2c(-n3cccc3)sc3c2CCN(CC)C3)sc2c1CCCC2` [Compound 36] gave a 50% effective concentration (EC50) of under 100 nM.
`CC1CCc2c(sc(NC(=O)NCc3c(-n4cccc4)sc4c3CCN(C)C4)c2C(=O)OC(C)(C)C)C1` (centres unmarked) [Compound 210] registered an EC50 of under 100 nM.
The same measure, in the same setting: the same measure for `COC(=O)c1c(NC(=O)NCc2c(Br)sc3c2CCN(C)C3)sc2c1CCCC2` [Compound 175]: under 100 nM; for `CCOC(=O)c1c(NC(=O)OCc2c(-n3cccc3)sc3c2CCN(CC)C3)sc2c1CCCC2` [Compound 94]: under 100 nM; for `CCOC(=O)c1c(NC(=O)NCc2c(-n3cccc3)sc3c2CCCC3)sc2c1CCCC2` [Compound 4]: under 100 nM.
Turning to `CCOC(=O)c1c(NC(=O)NCc2c(-n3cccc3)sc3c2CCN(CC)C3)sc2c1C(C)CCC2` (centres unmarked) [Compound 151], the EC50 is under 100 nM.
`CCc1sc2c(c1CNC(=O)Nc1sc3c(c1C(=O)OC(C)(C)C)CCCC3)CCNC2` [Compound 181] came in with an EC50 of under 100 nM.
Take `CCN1CCc2c(sc(-n3cccc3)c2CNC(=O)Nc2sc3c(c2C(=O)N(C)C)CCCC3)C1` [Compound 122]: the EC50 was 100 to 1000 nM.
The compound `CC(C)(C)OC(=O)c1c(NC(=O)NCc2c(-n3cccc3)sc3c2CCNC3)sc2c1CCCCC2` [Compound 302] yielded a concentration for a half-maximal effect (EC50) of under 100 nM.
Consider `COCCN1CCc2c(sc(-n3cccc3)c2CNC(=O)Nc2sc3c(c2C(=O)OC(C)(C)C)CCCC3)C1` [Compound 259], for which the EC50 was under 100 nM.
`CCc1sc(NC(=O)NCc2c(-n3cccc3)sc3c2CCNC3)c(C(=O)OC(C)(C)C)c1C` [Compound 318] yielded an EC50 of 100 to 1000 nM.
In the case of `CC(C)(C)OC(=O)c1c(NC(=O)NCc2c(-c3ccnc(Cl)c3)sc3c2CCNC3)sc2c1CCCC2` [Compound 308], the EC50 was under 100 nM.
`Cc1sc(NC(=O)NCc2c(C(F)(F)F)sc3c2CCNC3)c(C(=O)OC2CCOC2)c1C` (centres unmarked) [Compound 350] came in with an EC50 of under 100 nM.
